{"source": "paper PMC12040169", "about": "(PLOS Biology, 2025)", "data": [{"experiment": "in vitro", "settings": "human, hela cells, % viability", "units": {"viability at 28.5 h, 10 µM": "%"}, "values": [{"compound": "CC(=O)N(C)c1nc(-c2cccc(N(C)C)c2)ccc1C(=O)NCc1cccnc1", "note": "[CBK076639]", "viability at 28.5 h, 10 µM": 101}, {"compound": "CCn1c(C)nc2cc(NC(=O)c3cnn(C)c3)ccc21", "note": "[CBK281837]", "viability at 28.5 h, 10 µM": 86.1}, {"compound": "Cc1ccc(C(=O)N2CN(C(=O)CNC(C)(C)C)CC2(C)C)cc1", "note": "[CBK089575C]", "viability at 28.5 h, 10 µM": 88.6}, {"compound": "Cc1noc(NS(=O)(=O)c2ccc(NC(=O)C3COc4ccccc4O3)cc2)c1C", "note": "(centres unmarked) [CBK264923]", "viability at 28.5 h, 10 µM": 90.1}, {"compound": "Cc1nc(-c2ccccc2)sc1CNC(=O)CCC(F)(F)F", "note": "[CBK092365]", "viability at 28.5 h, 10 µM": 102}, {"compound": "CC(C)CN(CCc1ccc(O)cc1)CC(=O)NC1(c2ccccc2)CCC1", "note": "[CBK067781T]", "viability at 28.5 h, 10 µM": 100}, {"compound": "Cc1ccc(CS(=O)(=O)N(C)C2CCN(C)C(C)C2)c(F)c1", "note": "(centres unmarked) [CBK305484]", "viability at 28.5 h, 10 µM": 90.4}, {"compound": "Cc1ccc(NC(=O)Cn2c(=O)cc(O)c3ccccc32)cc1", "note": "[CBK291116]", "viability at 28.5 h, 10 µM": 95.9}, {"compound": "Cc1ccc(C(=O)C2(O)CCN(CCCC(c3ccc(F)cc3)c3ccc(F)cc3)CC2)cc1", "note": "[CBK025221C]", "viability at 28.5 h, 10 µM": 90.6}, {"compound": "COc1ccc(CCNC(=S)N2CCN(S(C)(=O)=O)CC2)cc1OC", "note": "[CBK266917]", "viability at 28.5 h, 10 µM": 115}, {"compound": "CCCS(=O)(=O)N1CCC(C(=O)NCc2ccc(Cl)cc2Cl)CC1", "note": "[CBK305559]", "viability at 28.5 h, 10 µM": 102}, {"compound": "CCc1cccc2c(CC(=O)N(C)CCN(C)C)c(C)[nH]c12", "note": "[CBK282673]", "viability at 28.5 h, 10 µM": 102}, {"compound": "O=C1/C(=C2/Sc3ccccc3N2CCCS(=O)(=O)O)SC(=S)N1c1ccccc1", "note": "[CBK260954G]", "viability at 28.5 h, 10 µM": 94.5}, {"compound": "O=C(Nc1cc(N2CCCS2(=O)=O)ccc1F)c1n[nH]c2ccccc12", "note": "[CBK304216]", "viability at 28.5 h, 10 µM": 80.5}, {"compound": "O=C(O)CCC(=O)N1N=C2C(=Cc3cccc([N+](=O)[O-])c3)CCCC2C1c1cccc([N+](=O)[O-])c1", "note": "(centres unmarked) [CBK296071]", "viability at 28.5 h, 10 µM": 122}, {"compound": "C#CCOc1cn([C@H]2C[C@@H](O)[C@@H](CO)O2)c(=O)[nH]c1=O", "note": "[CBK201278]", "viability at 28.5 h, 10 µM": 91.7}, {"compound": "Nc1nonc1NC(=O)N/N=C/c1ccc(C(F)(F)F)cc1", "note": "[CBK261813]", "viability at 28.5 h, 10 µM": 99.8}, {"compound": "COc1ccc(-c2nc(NC(=O)c3ccncc3)cnc2-c2ccc(F)c(Cl)c2)cc1", "note": "[CBK036663]", "viability at 28.5 h, 10 µM": 88.6}, {"compound": "OCc1cccc(-c2nccnc2NCc2ccc(F)cc2)c1", "note": "[CBK037670]", "viability at 28.5 h, 10 µM": 103}, {"compound": "O=C(CCC(=O)c1ccc(Cl)cc1)OCC(=O)c1cccc(I)c1", "note": "[CBK264760]", "viability at 28.5 h, 10 µM": 89.9}, {"compound": "CCN1CCOC(CNc2nc(-c3ccncc3)nc3c2CCC3)C1", "note": "(centres unmarked) [CBK306215]", "viability at 28.5 h, 10 µM": 88.4}, {"compound": "CC1CCN(S(=O)(=O)c2cccs2)CC1", "note": "[CBK102093]", "viability at 28.5 h, 10 µM": 118}, {"compound": "CCn1c(=O)c(C=Cc2cccc(Br)c2)nc2cc(C(=O)O)ccc21", "note": "[CBK295364]", "viability at 28.5 h, 10 µM": 110}, {"compound": "Cn1c(=O)[nH]c(=O)c2c(-c3ccccc3)ccnc21", "note": "[CBK288136]", "viability at 28.5 h, 10 µM": 72}, {"compound": "N#Cc1cccc(-c2cnc(N)c(-c3ccc(O)cc3)n2)c1", "note": "[CBK115630]", "viability at 28.5 h, 10 µM": 98}, {"compound": "C[N+]1(C)CCN(C(=O)CCC(=O)N2CC[N+](C)(C)CC2)CC1", "note": "[CBK278200I]", "viability at 28.5 h, 10 µM": 94.4}, {"compound": "c1ccc(Nc2nc3nonc3n3cnnc23)cc1", "note": "[CBK287278]", "viability at 28.5 h, 10 µM": 105}, {"compound": "COc1ccc(S(=O)(=O)Nc2ccc3oc4c(c3c2)CC(C)CC4)cc1[N+](=O)[O-]", "note": "(centres unmarked) [CBK266131]", "viability at 28.5 h, 10 µM": 94.3}, {"compound": "CCSc1nnnn1-c1cccc(NC(C)=O)c1", "note": "[CBK305511]", "viability at 28.5 h, 10 µM": 94.4}, {"compound": "O=C(CC1CCCC1)N1CCC(c2nnc3n2CCCCC3)CC1", "note": "[CBK284630]", "viability at 28.5 h, 10 µM": 84.6}, {"compound": "COc1ccccc1C1CCN(C(=O)c2ccc(C(C)(C)C)cc2)CC1", "note": "[CBK086469]", "viability at 28.5 h, 10 µM": 84.3}, {"compound": "CCN1CCN(C(=O)Cc2cn(C)c3ccccc23)CC1", "note": "[CBK200254]", "viability at 28.5 h, 10 µM": 96.9}, {"compound": "CC1(C)C2CCC1(CS(=O)(=O)N(Cc1ccccc1)Cc1ccccc1)C(=O)C2", "note": "(centres unmarked) [CBK266082]", "viability at 28.5 h, 10 µM": 107}, {"compound": "O=[N+]([O-])c1ccc(S(=O)(=O)Nc2nnc(Cc3ccc(Cl)cc3)s2)cc1", "note": "[CBK200046]", "viability at 28.5 h, 10 µM": 93.2}]}, {"experiment": "in vitro", "settings": "human, hela cells, % viability, bulk resorufin, single well", "units": {"viability at 28.5 h, 10 µM": "%"}, "values": [{"compound": "CCCN(CCCc1ccccc1)C1Cc2cc(OC)c(OC)cc2C1", "note": "[CBK017596C]", "viability at 28.5 h, 10 µM": 96.6}]}]}
